Assay results: US20220356525A1, “METHODS OF DETERMINING WHETHER PATIENTS SUFFERING FROM ACUTE MYELOID LEUKEMIA WILL ACHIEVE A RESPONSE TO AN MYC-TARGETING THERAPY” (INSERM (INSTITUT NATIONAL DE LA SANTÉ ET DE LA RECHERCHE …, priority 2019, published 2022)

Legend:
CDK7 = CDK7 (Homo sapiens, UniProt P50613); settings: Table 1, Kwiatkowski et al. (2014); cited from earlier work
[1] = system: AML cell lines (KG1a, IMS-M2, and U937); assay: AML cell line sensitivity to BET/CDK7 inhibitors in standard versus nutrient-deprived (folic acid-starved) media; format: cell-based, human; settings: for AML cell line sensitivity: folic acid withdrawal
Source text: BET proteins interact with acetylated histones in active regulatory domains (promoters and enhancers) and promote RNA PolII activity. Despite the general nature of this mechanism, BET inhibitors have shown selective effects on gene expression through suppression of […] and MYC-related transcriptional programs (8, 11, 12). Two cohorts of AML patients (TCGA-LAML, n=198 and GSE14468, n=526) were queried with multiple gene sets related to MYC transcriptional programs as well as vitamin, amino acid, and nucleotide metabolism using single sample Gene Set Enrichment Analysis (ssGSEA). Correlation between gene sets was queried across all patients from each cohort to pinpoint potential crosstalk between active MYC programs and specific metabolic pathways (data not shown).
(§1) To investigate further the relationship between folic acid starvation and increased BET inhibitor resistance, we compiled a panel of AML cell lines harboring diverse genetic alterations. […] The effect of folic acid removal was also evaluated in cell lines treated either with a second BET inhibitor, JQ1, or with THZ-1, a covalent inhibitor of CDK7, another key factor in transcriptional elongation at super-enhancer regions and a strong inhibitor of MYC expression (data not shown). […] Therefore, we studied selective suppression of BRD4 by short hairpin RNA (shRNA) in two AML cell lines.

U937 cell colonies = assay: Colony formation assay with OTX015 at reduced folic acid; format: cell-based, human; settings: 125-fold decrease in folic acid (1 mg/L to 0.008 mg/L)
Experimental: as §1

AML cells = assay: Apoptosis in response to OTX015 upon folic acid withdrawal; format: cell-based, human
Experimental: as §1

[2] = system: MLL-translocated primary patient samples with AML; assay: OTX015 sensitivity of primary AML patient samples; format: cell-based, human
Experimental: (§2) Error bars represent mean±SD.
as §1
Previous studies have extensively characterized two common MTHFR genetic variants, C677T and A1298C, encoding MTHFR enzyme variants with reduced activity, resulting in hyperhomocysteinemia in human carriers. In particular, the homozygous variant 677 TT and 1298 CC genotypes are present in ˜10% of Caucasians and display only 30% and 60% of the homozygous wild-type 677 CC and 1298 AA enzyme activities, respectively (16, 17). […] Five KG1a clones either 1) wild-type 677 CC and 1298 AA, 2) heterozygous 677 CT or 1298 AC, or 3) homozygous 677 TT or 1298 CC, were selected and genotyped via allelic discrimination technique (FIG. 1A). […] Finally, we engineered a tractable MLL-AF9-driven mouse model of AML in which Mtfhr genotype status was either homozygous wild-type, heterozygous or homozygous knockout.

IMS-M2 AML cells = assay: OTX015 sensitivity after shRNA knockdown of folate cycle enzymes; format: cell-based, human; settings: for increase of IC50 of OTX015: average
[3] = system: AML cell lines: KG1a, OCI-AML2, and U937; assay: OTX015 response and colony number after MTHFR-directed shRNAs in AML cell lines; format: cell-based, human
Source text: Dietary folic acid undergoes several conversion steps into intermediate metabolites before generation of 5,10-methylene-THF (5,10-CH2 THF). 5,10-CH2 THF is then either reduced in the folate cycle or oxidized in the formate-producing tetrahydrofolate salvage cycle, depending on cellular needs. Despite the fact that folic acid can ultimately be processed through these two interconnected pathways, we observed in our previous ssGSEA analyses that active MYC gene signatures were highly correlated with activation of tetrahydrofolate salvage cycle, but not with folate cycle-related gene sets (data not shown). […] Five central enzymes control the multi-step conversion of dietary folate into 5,10-methylene-THF (5,10-CH2 THF) before its reduction to 5-methyl-THF (5-CH3 THF) and recycling to THF. […] Finally, we abrogated Mthfr expression in primary murine MLL-AF9-driven AML cells using two Mthfr-directed shRNAs before treatment of engrafted mice with JQ1 (data not shown).

[4] = system: CRISPR/Cas9-edited KG1a clones; assay: OTX015 sensitivity and colony formation of CRISPR/Cas9-edited KG1a clones with MTHFR variants; format: cell-based, human
Source text: Error bars represent mean±SD. Experiment performed at least two independent times.
as §2
Additional information is provided in the supplementary material and methods section.
Finally, we engineered a tractable MLL-AF9-driven mouse model of AML in which Mtfhr genotype status was either homozygous wild-type, heterozygous or homozygous knockout.

U937 cells = assay: OTX015 sensitivity after EED, EHMT1, SETDB1 hairpins; format: cell-based, human; settings: hairpins reducing EED, EHMT1 and SETB1 protein
[5] = system: MYC transcriptional program; assay: RNA sequencing and gene set enrichment after OTX015 for 24 hours; format: cell-based, human; settings: IMS-M2 and U937; irrespective of folate status; FDR<0.25
IMS-M2 and U937 cells [6] = assay: OTX015 resistance after SPI1 knockdown with folate withdrawal or MTHFR suppression; format: cell-based, human; settings: SPI1 depletion; folate cycle disturbed or MTHFR suppressed
Source text: To explore functionally whether SPI1 transcriptional program activation induced by folate cycle disruption promotes resistance to BRD4 inhibition, we knocked down SPI1 in IMS-M2 and U937 cells before folate withdrawal or MTHFR suppression (FIGS. 5F and 5G).

[7] = system: MLL-AF9-transformed Mthfr knockout primary murine cells; assay: OTX015 resistance after Spi1 knockdown in Mthfr knockout cells; format: cell-based
MLL-AF9-driven AML cells = assay: MLL-AF9-driven AML mouse models treated with JQ1; format: in vivo, mice
Experimental: (E) MLL-AF9-transformed GFP-positive granulomonocytic progenitors (Sca-1^−/c-KIT^+/CD16/32^+/CD34^+/MPO^+) from homozygous wild-type […], or heterozygous (+/−) and homozygous (−/−) Mthfr knockout mice transplanted into sublethally-irradiated recipient mice before treatment with vehicle or 50 mg/kg JQ1 for 7 days. Proportion of GFP-positive MLL-AF9 leukemic cells in bone marrow from five mice per group. p-value by Mann-Whitney test. n.s, nonsignificant (p>0.05). Error bars represent mean±SD.
The French National Committee on Animal Care reviewed and approved all mouse experiments. Sample size was influenced by historical penetrance and consistency of MLL-AF9-driven in vivo models. For the Mthfr knockout AML mouse model, BALB/cJ mice were purchased from Charles River Laboratories. Each recipient mouse was transplanted with transduced Scal^−/c-Kit^+ myeloid progenitors sorted from the total bone marrow of three donor mice. Approximatively two months post-transplantation, sick mice were euthanized and bone marrow harvested before flow-based sorting of MLL-AF9-positive granulo-monocytic bone marrow progenitor population (GFP^+/Sca-1^−/c-Kit^+/Cd16/32^+/Cd34^+) and PCR-based confirmation of Mthfr knockout status. 0.2×10^6 MLL-AF9-positive Mthfr^+/+, Mthfr^+/−, and Mthfr^−/− cells were then reinjected into sublethally-irradiated secondary recipient mice treated daily by intraperitoneal injection with 50 mg/kg JQ1 (10% DMSO+90% G5W).
For folate starvation experiments, 5-week old male C57BL/6J mice were given regular or folate-deficient casein-reconstituted diet (Safe-Diets) for 4 weeks before sublethal irradiation (350cGy) and injection with 0.2×10^6 MLL-AF9-positive L-GMP cells before treatment with 35 mg/kg or 50 mg/kg JQ1 (10% DMSO+90% G5W) for 7 days. For Mthfr knockdown experiments, MLL-AF9-positive L-GMP cells were infected with a control or two Mthfr-directed shRNAs cloned into an MSCV-miRE-SV40-eBFP vector modified from the MSCV-miRE_shBRD9_561-SV40-GFP vector (Addgene, #75139) by substitution of the GFP cassette with an eBFP fluorescent marker. 0.2×10^6 infected cells were injected into sublethally-irradiated 5-week old C57BL/6J recipient mice. Additional information is provided in the supplementary material and methods section.

OCI-AML2 cells = assay: Pooled CRISPR/Cas9 epigenetic screen with JQ1; format: cell-based, human
Experimental: OCI-AML2 cells were seeded into six-well plates at a density of 3×10^6 cells per well and transduced at MOI 0.2. […] 24 hours post-transduction, cells were replated into puromycin-containing media. A sample was collected at 48 hours post-puromycin to confirm library coverage in the transduced population. Transduced cells were expanded in puromycin for 10 days before drug, when the transduced population was split into vehicle (DMSO) and JQ1 conditions and maintained for two weeks. Deep sequencing was performed by Hudson Alpha Institute for Biotechnology on an Illumina Nextseq platform (75 bp, single-ended) to identify differences in library composition. Additional information is provided in the supplementary material and methods section.

BRD4 = BRD4 (Homo sapiens, UniProt O60885); settings: previous studies; cited from earlier work
IMS-M2 and U937 cells [8] = settings: 50 μM 5-CH3 THF; MTHFR-directed shRNAs
[9] = system: KG1a, U937 and IMS-M2 cells; assay: OTX015 sensitivity with SAH supplementation; format: cell-based, human
Source text: We next used metabolism profiling to characterize the effect of folate pathway alteration on global cell metabolism in U937 cells. […] ShRNA-mediated MTHFR depletion induced a similar increase in SAH levels as that observed upon folate withdrawal in AML cell lines U937 and IMS-M2 (data not shown).

[10] = folic acid-starved media versus standard media, panel of AML cell lines

Chain of CDK7 (P50613 whole entry): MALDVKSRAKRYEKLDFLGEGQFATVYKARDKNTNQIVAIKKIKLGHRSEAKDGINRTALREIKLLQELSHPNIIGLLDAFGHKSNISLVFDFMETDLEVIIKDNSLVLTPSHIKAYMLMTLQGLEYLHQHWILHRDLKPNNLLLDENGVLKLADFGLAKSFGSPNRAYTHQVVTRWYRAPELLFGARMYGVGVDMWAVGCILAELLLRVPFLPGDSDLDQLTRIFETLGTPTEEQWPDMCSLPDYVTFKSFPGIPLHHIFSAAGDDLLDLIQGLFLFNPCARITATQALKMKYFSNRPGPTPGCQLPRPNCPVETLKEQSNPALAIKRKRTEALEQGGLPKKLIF
Chain of CDK7 (P51946 whole entry partner): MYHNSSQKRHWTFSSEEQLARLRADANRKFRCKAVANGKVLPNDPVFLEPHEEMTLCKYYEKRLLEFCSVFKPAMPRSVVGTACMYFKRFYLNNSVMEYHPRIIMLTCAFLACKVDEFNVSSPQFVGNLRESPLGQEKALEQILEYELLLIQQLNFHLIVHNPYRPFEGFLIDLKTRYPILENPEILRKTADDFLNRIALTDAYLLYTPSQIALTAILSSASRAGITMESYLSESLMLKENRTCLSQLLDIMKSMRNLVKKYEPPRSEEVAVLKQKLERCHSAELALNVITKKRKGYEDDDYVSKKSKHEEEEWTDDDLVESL

## CC[C@H](CO)Nc1nc(NCc2ccccc2)c2ncn(C(C)C)c2n1 [Roscovitine]
CDK7
  inhibitory activity toward CDK7 relative to other CDKs: lower inhibitory activity toward CDK7 than toward at least one other CDK

## CC(C)CC(=O)Nc1[nH]nc2c1CN(C(=O)C1CCN(C)CC1)C2(C)C [PHA-793887]
CDK7
  inhibitory activity toward CDK7 relative to other CDKs: lower inhibitory activity toward CDK7 than toward at least one other CDK

## Cc1sc2c(c1C)C(c1ccc(Cl)cc1)=N[C@@H](CC(=O)Nc1ccc(O)cc1)c1nnc(C)n1-2 [OTX015]
[1]; folic acid starvation, KG1a, IMS-M2, U937
  resistance to OTX015: consistently enhanced resistance
[1]; [10]
  area under curve (AUC): significantly increased
  half-maximal inhibitory concentration (IC50): significantly increased
[1]; phenylalanine and histidine starvation
  resistance to OTX015: increased resistance to OTX015 in a subset of AML cell lines
U937 cell colonies
  number of colonies in presence of OTX015: significantly increased the number of U937 cell colonies
AML cells
  apoptosis in response to OTX015: decrease in apoptosis
[2]; 16 samples, homozygous and compound heterozygous MTHFR genotype versus wild-type and heterozygous
  response to OTX015 (IC90, 5 days): responded significantly less
[2]; folic acid withdrawal
  IC50: markedly increased
IMS-M2 AML cells; hairpins targeting DHFR and DHFR2
  increase of IC50 of OTX015: 3 fold
IMS-M2 AML cells; hairpins targeting MTHFR
  increase of IC50 of OTX015: 7 fold
IMS-M2 AML cells; hairpins targeting SHMT1 and MTR
  response to OTX015: did not significantly alter response
[3]; MTHFR suppression
  response to increasing doses of OTX015: substantially weakened the response
[3]; MTHFR-depleted versus shCT-infected cells
  colony number upon OTX015 treatment: significant increase in colony number
[4]; 677 TT and 1298 CC homozygous versus wild-type clones, 1 μM OTX015
  number of colonies upon OTX015 treatment: substantially higher
U937 cells
  OTX015 sensitivity: markedly alleviated OTX015 sensitivity
[5]
  enrichment of MYC gene sets in genes suppressed by OTX015: highly enriched
IMS-M2 and U937 cells [6]
  OTX015 resistance: significantly reduced OTX015 resistance
[7]
  resistance to OTX015: abrogated resistance to OTX015

## CN1CC[C@H](c2c(O)cc(O)c3c(=O)cc(-c4ccccc4Cl)oc23)[C@H](O)C1 [flavopiridol]
CDK7
  inhibitory activity toward CDK7 relative to other CDKs: lower inhibitory activity toward CDK7 than toward at least one other CDK

## Cc1sc2c(c1C)C(c1ccc(Cl)cc1)=N[C@@H](CC(=O)OC(C)(C)C)c1nnc(C)n1-2 [JQ1, tert-butyl 2-[(9S)-7-(4-chlorophenyl)-4,5,13-trimethyl-3-thia-1,8,11,12-tetrazatricyclo[8.3.0.02,6]trideca-2(6),4,7,10,12-pentaen-9-yl]acetate]
[1]
  AML cell line sensitivity: significantly dampened
MLL-AF9-driven AML cells; animals transplanted with Mthfr-depleted (shRNA) blasts, JQ1 treatment
  leukemic burden: not significantly decreased
MLL-AF9-driven AML cells; control shRNA counterparts
  sensitivity of leukemic burden to JQ1: striking sensitivity
MLL-AF9-driven AML cells; loss of a single copy of Mthfr, 50 mg/kg JQ1 for 7 days
  sensitivity to JQ1 (GFP-positive MLL-AF9 leukemic cells in bone marrow): sufficient to attenuate sensitivity
MLL-AF9-driven AML cells; mice fed no folate diet versus regular diet
  anti-leukemic activity: markedly attenuated
MLL-AF9-driven AML cells; mice injected with Mthfr-depleted cells versus control leukemic cells
  overall survival after JQ1 treatment: significantly shorter
OCI-AML2 cells; knockout of EED, EIMT1 and SETDB1, 2 weeks
  effect of gene knockout on cells treated with JQ1: rescued cells from JQ1
OCI-AML2 cells; knockout of KDMIA, JMJDIC and KDM3B
  effect of gene knockout on cells treated with JQ1: enhanced cell sensitivity to JQ1
BRD4
  inhibition of BRD4: potently inhibited

## CN(C)C/C=C/C(=O)Nc1ccc(C(=O)Nc2cccc(Nc3ncc(Cl)c(-c4c[nH]c5ccccc45)n3)c2)cc1 [THZ-1]
[1]
  AML cell line sensitivity: significantly dampened

## CN1c2c(nc(N)[nH]c2=O)NCC1CNc1ccc(C(=O)N[C@@H](CCC(=O)O)C(=O)O)cc1 (stereo partly drawn) [5-CH3 THF, 5-methyltetrahydrofolate]
[2]; 50 μM 5-CH3 THF, three patient samples with altered MTHFR genotype
  effect on response to OTX015 (IC90, 5 days): sensitized to OTX015
[4]; 50 μM 5-CH3 THF, 677 TT or 1298 CC clones versus wild-type
  effect on response to OTX015 (fold change of IC50, 5 days): substantially enhanced response to OTX015
IMS-M2 and U937 cells [8]
  effect on cytotoxicity of OTX015 (fold change of IC50, 5 days): restored a cytotoxic effect of OTX015

## Nc1ncnc2c1ncn2[C@@H]1O[C@H](CSCC[C@H](N)C(=O)O)[C@@H](O)[C@H]1O [SAH, S-adenosylhomocysteine]
[9]; methionine depleted 300-fold, IMS-M2 cells
  cytoprotective effect of SAH against OTX015: enhanced the cytoprotective effect of SAH against OTX015
[9]; methionine depleted, U937 and KG1a cells
  resistance to OTX015 with SAH: even greater resistance to OTX015 than folate restriction alone
